According to patent publication US11667651B2, “Aminopyridine derivatives as phosphatidylinositol phosphate kinase inhibitors” (HiberCell, Inc., priority 2017, dated 2023):

Target: T1, PIP4K2A (Homo sapiens, UniProt P48426)
T1 sequence (P48426 1-406): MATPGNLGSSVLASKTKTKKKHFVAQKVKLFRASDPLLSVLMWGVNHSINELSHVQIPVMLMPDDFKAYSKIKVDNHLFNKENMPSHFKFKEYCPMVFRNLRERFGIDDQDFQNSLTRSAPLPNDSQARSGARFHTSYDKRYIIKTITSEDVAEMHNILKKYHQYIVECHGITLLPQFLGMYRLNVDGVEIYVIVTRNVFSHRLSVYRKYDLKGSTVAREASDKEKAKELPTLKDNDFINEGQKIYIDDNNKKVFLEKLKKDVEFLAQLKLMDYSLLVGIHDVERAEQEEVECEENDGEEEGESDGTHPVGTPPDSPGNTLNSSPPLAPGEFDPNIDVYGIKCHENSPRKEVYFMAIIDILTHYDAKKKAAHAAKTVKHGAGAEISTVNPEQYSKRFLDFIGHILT
Assay: Kinase Assay PIP4K2 A (Table 2)
Type: biochemical
Parameters: 4 nM PIP4K2A (full length protein, SignalChem); purchased SignalChem
Details: compounds listed under IC50 bins
Protocol: Dilution series of the compounds were prepared in DMSO at 100 times the final assay concentration (n1=n0/3 in 10 points). The compounds were further diluted to three times the assay concentration in assay buffer (20 mM MOPS pH 7.2, 25 mM magnesium chloride, 0.005% Tween 20). 6 μL of the diluted compounds were added to a 384 well assay plate followed by 9 μL of a mix consisting of 4 nM PIP4K2A (full length protein, SignalChem) and 100 μM PI(5)P diC8 (Tebu-Bio). Enzyme and compounds were pre-incubated at room temperature for 15 minutes.
Then 3 μL of a solution containing 60 μM ATP (Promega) in assay buffer was added to the wells containing compound and enzyme and mixing was performed by pipetting several times. The reaction was incubated at room temperature for 1 h. Then 18 μL of ADP-Glo™ Reagent (Promega) was added to stop the kinase reaction and deplete the unconsumed ATP, mixing was performed by pipetting several times. The plate was incubated at room temperature for 40 minutes before addition of 36 μL of Kinase Detection Reagent (Promega) to convert ADP to ATP and introduce luciferase and luciferin to detect ATP. The reaction was incubated at room temperature for 40 minutes before the luminescence was measured in a in a Victor 3V 1420 multilabel counter (Perkin Elmer).
Percent inhibition of the compounds as compared to dimethyl sulfoxide treated control samples was calculated. Compound concentration versus percent inhibition were fitted to generate IC50 values.

SMILES	IC50 [nM]
CN(C)C(=O)C1CC=C(c2ccc(Nc3cccnc3)nc2)CC1 (centres unmarked) [Example 6, N,N-dimethyl-4-(6-(pyridin-3-ylamino)pyridin-3-yl)cyclohex-3-ene-1-carboxamide]	> 1000
Cc1cc(Nc2cccnc2)ncc1-c1ccc(C(=O)N(C)C)cc1 [Example 16, N,N-dimethyl-4-(4-methyl-6-(pyridin-3-ylamino)pyridin-3-yl)benzamide]	100 to 1000
CCc1cc(Nc2cccnc2)ncc1-c1ccc(C(=O)N(C)C)cc1 [Example 17, 4-(4-ethyl-6-(pyridin-3-ylamino)pyridin-3-yl)-N,N-dimethylbenzamide]	100 to 1000
CN(C)C(=O)c1ccc(-c2ccc(Nc3cncc(N(C)S(=O)(=O)C4CC4)c3)nc2)cc1 [Example 25, N,N-dimethyl-4-(6-((5-(N-methylcyclopropanesulfonamido)pyridin-3-yl)amino)pyridin-3-yl)benzamide]	10 to 100
CN(C)C(=O)c1ccc(-c2ccc(Nc3cccnc3)nc2)nc1 [Example 9, N,N-dimethyl-6′-(pyridin-3-ylamino)-[2,3′-bipyridine]-5-carboxamide]	> 1000
CC(C)S(=O)(=O)N(C)c1cncc(Nc2ccc(-c3ccc(C(=O)N(C)C)cc3)cn2)c1 [Example 26, N,N-dimethyl-4-(6-((5-(N-methylpropan-2-ylsulfonamido)pyridin-3-yl)amino)pyridin-3-yl)benzamide]	10 to 100
Cc1cc(C(=O)N(C)C)ccc1-c1ccc(Nc2cccnc2)nc1 [Example 2, N,N,3-trimethyl-4-(6-(pyridin-3-ylamino)pyridin-3-yl)benzamide]	> 1000
CN(C)C(=O)c1ccc(-c2cnc(Nc3cncc(N4CCCC4=O)c3)cn2)cc1F [Example 20, 2-fluoro-N,N-dimethyl-4-(5-((5-(2-oxopyrrolidin-1-yl)pyridin-3-yl)amino)pyrazin-2-yl)benzamide]	100 to 1000
CN(C)C(=O)c1cc(F)c(-c2ccc(Nc3cncc(N4CCCC4=O)c3)nc2)cc1F [Example 14, 2,5-difluoro-N,N-dimethyl-4-(6-((5-(2-oxopyrrolidin-1-yl)pyridin-3-yl)amino)pyridin-3-yl)benzamide]	100 to 1000
CN(C)C(=O)c1ccc(-c2cnc(Nc3cccnc3)cn2)cc1 [Example 18, N,N-dimethyl-4-(5-(pyridin-3-ylamino)pyrazin-2-yl)benzamide]	100 to 1000
CN(C)C(=O)c1ccc(-c2ccc(Nc3cccnc3)nc2)s1 [Example 5, N,N-dimethyl-5-(6-(pyridin-3-ylamino)pyridin-3-yl)thiophene-2-carboxamide]	> 1000
O=C(c1ccc(-c2ccc(Nc3cccnc3)nc2)cc1)N1CCC1 [Example 11, azetidin-1-yl(4-(6-(pyridin-3-ylamino)pyridin-3-yl)phenyl)methanone]	10 to 100
CN(C)C(=O)c1ccc(-c2ccc(Nc3cccnc3)nc2)cn1 [Example 3, N,N-dimethyl-6′-(pyridin-3-ylamino)-[3,3′-bipyridine]-6-carboxamide]	> 1000
CN(C)C(=O)c1ccc(-c2cnc(Nc3cncc(N4CCCC4=O)c3)cn2)c(F)c1 [Example 21, 3-fluoro-N,N-dimethyl-4-(5-((5-(2-oxopyrrolidin-1-yl)pyridin-3-yl)amino)pyrazin-2-yl)benzamide]	100 to 1000
CN(C)C(=O)[C@H]1CC[C@@H](c2ccc(Nc3cccnc3)nc2)CC1 [Example 8, (1s,4s)-N,N-dimethyl-4-(6-(pyridin-3-ylamino)pyridin-3-yl)cyclohexane-1-carboxamide]	> 1000
CN(C)C(=O)c1ccc(-c2ccc(Nc3cncc(N4CCCC4=O)c3)nc2)cc1F [Example 12, 2-fluoro-N,N-dimethyl-4-(6-((5-(2-oxopyrrolidin-1-yl)pyridin-3-yl)amino)pyridin-3-yl)benzamide]	10 to 100

The next lines start with the values.

IC50 [nM]	SMILES
10 to 100	CN(C)C(=O)c1ccc(-c2ccc(Nc3cncc(C4(C#N)CC4)c3)nc2)cc1 [Example 40, 4-(6-((5-(1-cyanocyclopropyl)pyridin-3-yl)amino)pyridin-3-yl)-N,N-dimethylbenzamide]
100 to 1000	COc1cncc(Nc2ccc(-c3ccc(C(=O)N(C)C)cc3)cn2)c1 [Example 39, 4-(6-((5-methoxypyridin-3-yl)amino)pyridin-3-yl)-N,N-dimethylbenzamide]
10 to 100	CN(C)C(=O)c1ccc(-c2ccc(Nc3cncc(N4CCN(CC5CCCO5)C4=O)c3)nc2)cc1 (centres unmarked) [Example 77, N,N-dimethyl-4-(6-((5-(2-oxo-3-((tetrahydrofuran-2-yl)methyl)imidazolidin-1-yl)pyridin-3-yl)amino)pyridin-3-yl)benzamide]
100 to 1000	COc1ncc(Nc2ccc(-c3ccc(C(=O)N(C)C)cc3)cn2)cn1 [Example 34, 4-(6-((2-methoxypyrimidin-5-yl)amino)pyridin-3-yl)-N,N-dimethylbenzamide]
100 to 1000	CN(C)C(=O)c1ccc(-c2ccc(Nc3cncnc3)nc2)cc1 [Example 32, N,N-dimethyl-4-(6-(pyrimidin-5-ylamino)pyridin-3-yl)benzamide]
100 to 1000	CN(C)C(=O)c1ccc(-c2ccc(Nc3cncc(C#N)c3)nc2)cc1 [Example 30, 4-(6-((5-cyanopyridin-3-yl)amino)pyridin-3-yl)-N,N-dimethylbenzamide]
> 1000	O=C(c1ccc(-c2ccc(Nc3cccnc3)nc2)cc1)N1CCCC1 [Example 66, (4-(6-(pyridin-3-ylamino)pyridin-3-yl)phenyl)(pyrrolidin-1-yl)methanone]
10 to 100	CN(C)C(=O)c1ccc(-c2ccc(Nc3cncc(N4CCN(C)C4=O)c3)nc2)cc1 [Example 72, N,N-dimethyl-4-(6-((5-(3-methyl-2-oxoimidazolidin-1-yl)pyridin-3-yl)amino)pyridin-3-yl)benzamide]
10 to 100	CN(C)C(=O)c1ccc(-c2ccc(Nc3cncc(N4CCNC4=O)c3)nc2)cc1 [Example 75, N,N-dimethyl-4-(6-((5-(2-oxoimidazolidin-1-yl)pyridin-3-yl)amino)pyridin-3-yl)benzamide]
10 to 100	CN(C)C(=O)c1ccc(-c2ccc(Nc3cncc(N(C)C(=O)C4CC4c4ccccc4)c3)nc2)cc1 (centres unmarked) [Example 52, N,N-dimethyl-4-(6-((5-(N-methyl-2-phenylcyclopropane-1-carboxamido)pyridin-3-yl)amino)pyridin-3-yl)benzamide]
> 1000	Cc1ncccc1Nc1ccc(-c2ccc(C(=O)N(C)C)cc2)cn1 [Example 35, N,N-dimethyl-4-(6-((2-methylpyridin-3-yl)amino)pyridin-3-yl)benzamide]
> 1000	CN(Cc1cccnc1)C(=O)c1ccc(-c2ccc(Nc3cccnc3)nc2)cc1 [Example 70, N-methyl-4-(6-(pyridin-3-ylamino)pyridin-3-yl)-N-(pyridin-3-ylmethyl)benzamide]
> 1000	CN(C)C(=O)c1ccc(-c2ccc(Nc3cncc(C(=O)N(C)C)c3)nc2)cc1 [Example 37, 5-((5-(4-(dimethylcarbamoyl)phenyl)pyridin-2-yl)amino)-N,N-dimethylnicotinamide]
100 to 1000	CN(Cc1ccco1)C(=O)c1ccc(-c2ccc(Nc3cccnc3)nc2)cc1 [Example 69, N-(furan-2-ylmethyl)-N-methyl-4-(6-(pyridin-3-ylamino)pyridin-3-yl)benzamide]
10 to 100	CN(C)C(=O)c1ccc(-c2ccc(Nc3cncc(N(C4CC4)S(C)(=O)=O)c3)nc2)cc1 [Example 28, 4-(6-((5-(N-cyclopropylmethylsulfonamido)pyridin-3-yl)amino)pyridin-3-yl)-N,N-dimethylbenzamide]
100 to 1000	CN(C)C(=O)c1ccc(-c2ccc(Nc3cncc(C4(C(N)=O)CC4)c3)nc2)cc1 [Example 41, 4-(6-((5-(1-carbamoylcyclopropyl)pyridin-3-yl)amino)pyridin-3-yl)-N,N-dimethylbenzamide]
100 to 1000	CN(Cc1ccccc1)C(=O)c1ccc(-c2ccc(Nc3cccnc3)nc2)cc1 [Example 67, N-benzyl-N-methyl-4-(6-(pyridin-3-ylamino)pyridin-3-yl)benzamide]
100 to 1000	CN(C)C(=O)Cc1cncc(Nc2ccc(-c3ccc(C(=O)N(C)C)cc3)cn2)c1 [Example 218, 4-(6-((5-(2-(dimethylamino)-2-oxoethyl)pyridin-3-yl)amino)pyridin-3-yl)-N,N-dimethylbenzamide]
10 to 100	CN(C)C(=O)c1ccc(-c2ccc(Nc3cnc4c(c3)N(S(C)(=O)=O)CCO4)nc2)cc1 [Example 217, N,N-dimethyl-4-(6-((1-(methylsulfonyl)-2,3-dihydro-1H-pyrido[2,3-b][1,4]oxazin-7-yl)amino)pyridin-3-yl)bnzamide]
